# Experimental data reported in article PMC10835127, “Viruses traverse the human proteome through peptide interfaces that can be biomimetically leveraged for drug discovery” (Proceedings of the National Academy of Sciences of the …, 2024).
# Where two headings read alike, the source gives them in different places.
# Tests used:
# [1] = test system: F. novicida (strain U112); assay type: cell-based
# influenza A H1N1 virus = conditions: 48 hr post-treatment, A549
# HCV replicon = assay type: cell-based
# HIV1 strain NL4-3 = assay type: cell-based
# [2] = normalized mean of EBV replication readout
# [3] = normalized mean of HCV replicon readout
# [4] = normalized mean of HIV1 replication readout
# [5] = normalized mean of EBV replication readout, peptide screen
# [6] = normalized mean of HCV replicon readout, peptide screen
# [7] = normalized mean of HIV1 replication readout, peptide screen
Substance,Francisella novicida Norm AUC [1],EBV Norm MEAN (EBV; [2]),Neuraminidase activity normalized to vehicle (influenza A H1N1 virus; 200 µM peptide),"Neuraminidase activity normalized to vehicle (influenza A H1N1 virus; 0,823 µM peptide)","Neuraminidase activity normalized to vehicle (influenza A H1N1 virus; 22,2 µM peptide)","Neuraminidase activity normalized to vehicle (influenza A H1N1 virus; 2,4691 µM peptide)","Neuraminidase activity normalized to vehicle (influenza A H1N1 virus; 7,4074 µM peptide)","Neuraminidase activity normalized to vehicle (influenza A H1N1 virus; 66,6667 µM peptide)",HCV Norm MEAN (HCV replicon; [3]),HIV1 Norm MEAN (HIV1 strain NL4-3; [4]),EBV Norm MEAN (EBV; [5]),HCV Norm MEAN (HCV replicon; [6]),HIV1 Norm MEAN (HIV1 strain NL4-3; [7]),inhibition of PI incorporation in F. novicida infected BMDMs (in words) [1],EBV Norm MEAN (EBV),HCV Norm MEAN (HCV replicon),HIV1 Norm MEAN (HIV1 strain NL4-3)
LNSLF [CPEP143],1.175,1.147,"0,8484","0,6928","0,8423","0,7636","0,8039","0,8807",0.2751,0.7905,–,–,–,–,–,–,–
RYSKRRHGRR [CPEP118],1.247,1.996,"0,7942","0,9639","0,7875","0,9014","0,7974","0,7776",0.2514,1.129,–,–,–,–,–,–,–
CPEP96: peptide of the viral peptide library; sequence page not shown (GRKKRRQRRRAHQ),1.029,–,"0,8043","0,9089","0,9748","0,9539","0,8942","0,9344",–,–,1.164,0.3919,0.5669,–,–,–,–
GGLEPLSEKHFRETEV [CPEP112],1.082,–,"1,0677","1,0673","1,1545","1,0388","1,1047","1,0264",–,–,0.8103,0.3447,0.2121,–,–,–,–
SEKHFRETEV [CPEP106],0.8616,1.282,"1,1108","0,9396","1,0803","0,9387","1,0552","1,1055",1.4,0.4711,–,–,–,–,–,–,–
PVHAGPIAP [CPEP87],1.084,0.6567,"0,6355","1,0155","0,8043","0,8845","0,906","0,7025",0.2137,0.4,–,–,–,–,–,–,–
WRHRAR [CPEP113],0.358,1.761,"0,9723","0,965","0,979","0,9338","0,9116","1,0465",0.1192,0.4362,–,–,–,most,–,–,–
AHQNSQTHQASLSKQ [CPEP43],1.137,–,"0,8034","0,7858","0,9843","0,876","0,8511","0,7841",–,–,0.682,1.077,0.3977,–,–,–,–
QILVESPTVLESGTKE [CPEP80],0.9366,–,"0,8685","1,0444","1,1492","1,0137","1,0974","0,9708",–,–,0.8761,0.9076,0.6346,–,–,–,–
LTEDRWNKPQKTKGH [CPEP141],1.234,–,"0,9005","0,8505","0,9378","0,92","0,9289","0,9241",–,–,0.7716,0.7797,0.4657,–,–,–,–
HVKNG [CPEP123],0.9754,1.599,"0,78","0,7776","0,8404","0,7299","0,7535","0,9273",0.1965,1.079,–,–,–,–,–,–,–
YLTDM [CPEP154],0.5909,1.807,"1,0928","1,0316","1,0253","0,9855","1,0107","1,0399",0.1792,1.461,–,–,–,–,–,–,–
KLVTELAENS [CPEP129],0.9413,1.255,"0,8014","1,1002","0,8882","1,0838","0,9983","0,7782",0.8005,0.8117,–,–,–,–,–,–,–
RTYGTWEDLFCDESL [CPEP128],0.8745,–,"0,6933","0,9138","1,0305","1,0131","0,9772","1,0247",–,–,1.318,0.6752,0.383,–,–,–,–
RHIICHGGVI [CPEP133],0.5145,1.143,"0,0947","0,951","0,4954","0,9186","0,811","0,1797",0.3927,7.136,–,–,–,–,–,–,–
HFEPPTLHELYDLDVTAP [CPEP115],1.086,–,"1,0337","1,141","1,1784","1,0495","1,1676","1,1762",–,–,0.5144,0.5064,1.21,–,–,–,–
CPEP98: peptide of the viral peptide library; sequence page not shown (PLPPTKAPPIPPPR),1.1759,–,"1,0266","0,8951","0,9384","0,9959","0,9005","0,9857",–,–,0.8005,0.3984,0.2763,–,–,–,–
TYGTC [CPEP97],0.4338,1.147,"0,8478","0,83","0,836","0,6842","0,8009","0,8711",0.1345,0.8497,–,–,–,–,–,–,–
RQARRNRRR [CPEP110],1.637,2.204,"0,8723","1,0272","0,8952","0,9228","0,9411","0,8493",0.05205,0.3127,–,–,–,–,–,–,–
EALKKALRRHRFLWQRR [CPEP73],1.711,–,"0,1338","1,11","1,1241","0,9956","1,1329","0,4622",–,–,2.469,0.02817,0.2962,–,–,–,–
PEPTAPPEE [CPEP147],1.176,–,–,–,–,–,–,–,–,–,–,–,–,–,0.5114,1.15,0.3632
